Values after ≈ are worked out from the molar mass of the structure shown.

Data set [1] deals with Staphylococcus aureus MS-9931. As to the kind of experiment: antimicrobial activity, broth dilution method. The following applies: MS9931; Staphylococcus aureus MS-9931, drug-resistant clinical isolate; read-out: minimum inhibitory concentration (MIC). The data set is classed as cell-based. Put shortly: (§1)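 The S. aureus and S. pyogenes strains are multidrug-resistant clinical isolates, and both are tylosin-resistant. Susceptibility was determined by the broth dilution technique.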
Background: Broth dilution looks for growth in wells or tubes with falling amounts of substance.

Data set [2] concerns Bacillus cereus ATCC 9634. As to the kind of experiment: antimicrobial activity, broth dilution method. The following applies: Bacillus cereus, ATCC9634, Bacillus cereus ATCC 9634; broth dilution; read-out: minimum inhibitory concentration (MIC). The data set is classed as cell-based. Put shortly: as §1
Data set [3] has as its system Staphylococcus aureus MS-9937. As to the kind of experiment: antimicrobial activity, broth dilution method. Type of data set: cell-based. The following applies: MS9937; Staphylococcus aureus MS-9937, drug-resistant clinical isolate; read-out: minimum inhibitory concentration (MIC). Put shortly: as §1
In data set [4] the test system is Staphylococcus aureus MS-8710. Kind of data set: antimicrobial activity, broth dilution method. The following applies: Staphylococcus aureus, MS8710, Staphylococcus aureus MS-8710, drug-resistant clinical isolate; read-out: minimum inhibitory concentration (MIC). Type of data set: cell-based. In short, it runs like this: as §1
The subject of data set [5] is Staphylococcus aureus SMITH. Kind of data set: antimicrobial activity, broth dilution method. Type of data set: cell-based. The following applies: Staphylococcus aureus, Staphylococcus aureus SMITH; broth dilution; read-out: minimum inhibitory concentration (MIC). In short, it runs like this:
(§2)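 Activity was measured by broth dilution against each strain. S. aureus MS-8710 is a clinical isolate resistant to tylosin, penicillin, tetracycline, erythromycin and leucomycin. The S. pyogenes strain is a clinical isolate resistant to tylosin, erythromycin, oleandomycin and leucomycin.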

Data set [6] has as its system Staphylococcus aureus FDA-209P. As to the kind of experiment: antimicrobial activity, broth dilution method. The data set is classed as cell-based. The following applies: Staphylococcus aureus, FDA209P, Staphylococcus aureus FDA-209P; broth dilution; read-out: minimum inhibitory concentration (MIC). In short, it runs like this:
as §2

Data set [7] deals with Streptococcus pyogenes MH-771. Kind of data set: antimicrobial activity, broth dilution method. Type of data set: cell-based. The following applies: Streptococcus pyogenes, MH771, Streptococcus pyogenes MH-771, drug-resistant clinical isolate; read-out: minimum inhibitory concentration (MIC). In short, it runs like this:
as §1

The next data set relates to Sarcina lutea ATCC 9341. As to the kind of experiment: antimicrobial activity, broth dilution method. Type of data set: cell-based. The following applies: Micrococcus luteus, ATCC9341, Sarcina lutea ATCC 9341, read-out: minimum inhibitory concentration (MIC). Put shortly: as §1
For data set [8], the system named is Mycoplasma gallisepticum KP-13. Kind of data set: antibacterial activity against Mycoplasma. Type of data set: cell-based. The following applies: Mycoplasmoides gallisepticum, KP13; strain KP-13; Eiken PPLO Medium; read-out: MIC. The text has this: (§3) Furthermore the new antibiotics according to the present invention also show antimicrobial activity on Mycoplasma. In particular, it is noteworthy that they have much higher antimicrobial activity than tylosin on Mycoplasma that is resistant to macrolide antibiotics. Tab.
(§4) **Medium (Eiken PPLO Medium)

In data set [9] the test system is Mycoplasma gallisepticum E-5. Kind of data set: antibacterial activity against Mycoplasma. The data set is classed as cell-based. The following applies: Mycoplasmoides gallisepticum, E5; strain E-5, macrolide resistant; Eiken PPLO Medium; read-out: MIC.
Excerpt: as §3
(§5) *Macrolide resistant strain
as §4

Data set [10] relates to Mycoplasma gallisepticum A-72. Kind of data set: antibacterial activity against Mycoplasma. Type of data set: cell-based. The following applies: Mycoplasmoides gallisepticum, A72; strain A-72, macrolide resistant; Eiken PPLO Medium.
Excerpt: as §3, §5, §4

Data set [11] relates to Mycoplasma gallisepticum E-11. As to the kind of experiment: antibacterial activity against Mycoplasma. Type of data set: cell-based. The following applies: Mycoplasmoides gallisepticum, E11; strain E-11, macrolide resistant; Eiken PPLO Medium; read-out: MIC.
Excerpt: as §3, §5, §4

The nature of data set [12]: toxicity in chickens, mixed with feed for a month. The data set is classed as in vivo. The following applies: mixed with feed at 0.3%. From the text:
3-Acetyl-4"-D-(α-hydroxyphenylacetyl)tylosin, 4"-phenylthioacetyltylosin and 4"-benzenesulfonylacetyltylosin, selected as the representative compounds according to the present invention, were mixed with feed at a ratio of 0.3%, respectively and given to chickens for a month.

A short description of the next data set: in vivo. The following applies: mouse, po, 100 mg/kg.

Method for in vivo: The new antibiotics according to the present invention were each orally administered to mice at a dose of 100 mg/kg. Each blood level was then measured and compared with those of tylosin and 3-acetyltylosin.

Consider `CCC1OC(=O)CC(O)C(C)C(OC2OC(C)C(OC3CC(C)(O)C(OC(=O)CS(=O)(=O)c4ccccc4)C(C)O3)C(N(C)C)C2O)C(CC=O)CC(C)C(=O)C=CC(C)=CC1COC1OC(C)C(O)C(OC)C1OC` (stereo not drawn) [Compound 43, 4"-benzenesulfonylacetyltylosin], for which the MIC in data set [1] was 6.25 µg/mL (≈ 5.69 µM); in data set [2], 0.78 µg/mL (≈ 0.71 µM); in data set [3] it was 6.25 µg/mL (≈ 5.69 µM); in data set [4], 6.25 µg/mL (≈ 5.69 µM); in [5] it was 0.78 µg/mL (≈ 0.71 µM); in [6], 0.78 µg/mL (≈ 0.71 µM). In addition, the MIC in data set [7] was found to be 3.13 µg/mL (≈ 2.85 µM); with Sarcina lutea ATCC 9341, 0.39 µg/mL (≈ 0.355 µM); in [8] it was 0.019 µg/mL (≈ 0.0173 µM); in [9], 0.078 µg/mL (≈ 0.071 µM); in data set [10], 0.039 µg/mL (≈ 0.0355 µM); in data set [11] it was 0.078 µg/mL (≈ 0.071 µM). Moreover, the toxicity result in data set [12] was “No toxicity was observed”.
Consider `CCC1OC(=O)CC(OC(C)=O)C(C)C(OC2OC(C)C(OC3CC(C)(O)C(OC(=O)C(O)c4ccccc4)C(C)O3)C(N(C)C)C2O)C(CC=O)CC(C)C(=O)C=CC(C)=CC1COC1OC(C)C(O)C(OC)C1OC` [Compound 17, 3-acetyl-4"-D-(α-hydroxyphenylacetyl)tylosin], for which the MIC in data set [1] stood at 12.5 µg/mL (≈ 11.4 µM); in [3], 12.5 µg/mL (≈ 11.4 µM); in data set [7], 6.25 µg/mL (≈ 5.72 µM); in [8], 0.157 µg/mL (≈ 0.144 µM); in [9], 0.625 µg/mL (≈ 0.572 µM); in data set [10], 0.313 µg/mL (≈ 0.287 µM). The MIC in data set [11] stood at 0.625 µg/mL (≈ 0.572 µM). The toxicity result in [12] is listed as “No toxicity was observed”. Moreover, in the data set “in vivo”, the concentration at 1 h came to 10000 ng/mL. In the data set “in vivo”, this compound gave a concentration at 3 h of 2000 ng/mL.
Take `CCC1OC(=O)CC(O)C(C)C(OC2OC(C)C(OC3CC(C)(O)C(OC(=O)CSc4ccccc4)C(C)O3)C(N(C)C)C2O)C(CC=O)CC(C)C(=O)C=CC(C)=CC1COC1OC(C)C(O)C(OC)C1OC` (stereo not drawn) [Compound 34, 4"-phenylthioacetyltylosin]: the MIC came to 12.5 µg/mL (≈ 11.7 µM) in [1]; 0.39 µg/mL (≈ 0.366 µM) in [2]; 12.5 µg/mL (≈ 11.7 µM) in data set [3]; 6.25 µg/mL (≈ 5.86 µM) in data set [4]; 0.39 µg/mL (≈ 0.366 µM) in [5]; 0.39 µg/mL (≈ 0.366 µM) in data set [6]. Moreover, the MIC was found to be 6.25 µg/mL (≈ 5.86 µM) in data set [7]; 0.19 µg/mL (≈ 0.178 µM) in the data set with Sarcina lutea ATCC 9341; 0.019 µg/mL (≈ 0.0178 µM) in data set [8]; 0.078 µg/mL (≈ 0.0731 µM) in data set [9]; 0.078 µg/mL (≈ 0.0731 µM) in [10]; 0.078 µg/mL (≈ 0.0731 µM) in data set [11]. Moreover, in [12], the toxicity result is on record as “No toxicity was observed”.

(Values after patent US4205163A, “Tylosin derivatives” (Sanraku-Ocean Co., Ltd., priority 1977, dated 1980).)
